From paper PMC7860073 (ACS Omega, 2021)

Target: sialidase-1 (Homo sapiens, UniProt Q99519)
Test: microscale thermophoresis
Assay type: binding

| SMILES | Kd [µM] |
| --- | --- |
| COc1cnc(NS(=O)(=O)c2ccc(N)cc2)nc1 [sulfameter] | 2.15 |
| COc1ccc(C(=O)c2ccc(C)cc2)c(O)c1 [mexenone] | 8.88 |
